Data reported in US20240093148A1, “METHOD FOR DIFFERENTIATING HUMAN INDUCED PLURIPOTENT STEM CELLS INTO OLIGODENDROCYTES, AND KIT AND USE” (ALLIFE MEDICINE (ZHUHAI) LIMITED, priority 2021, published 2024).

Tested on: human induced pluripotent stem cells
Assay: Induction of oligodendrocytes from iPSC in OPC mature culture medium with or without puerarin (immunofluorescence, cell count)
Format: cell-based
Experimental: Cleaned with DPBS three times, 3 minutes per time, and fixed with 4% PFA at room temperature for 40 minutes. Cleaned with DPBS three times, 3 minutes per time. 0.5% TritonX-100, perforation for 15 minutes. 5% BSA+0.15% TritonX-100, blocked at room temperature for 1 hour. Preparation of PBST: DPBS+1% BSA+0.15% TritonX-100. The primary antibody was added, stay overnight at 4 degrees. Recycled the primary antibody solution and cleaned it with PB ST three times for 10 minutes each time. The secondary antibody was added with a ratio of 1:500, stayed overnight at 4 degrees, away from light. Cleaned with PB ST three times for 10 minutes each time. 5 μg/ml DAPI for 2-3 minutes, away from light. Cleaned with DPBS and added 90% glycerol.
OPC mature medium—containing puerarin: 95% DMEM/F-12 medium, 1% non-essential amino acid, 1% GlutaMAX-I, 0.1 mM 2-mercaptoethanol, 1% N2 supplement, 2% B27 supplement, 10 ng/mL PDGF-AA, 10 ng/mL IGF-1, 5 ng/mL HGF, 10 ng/mL NT3, 60 ng/mL T3, 100 ng/mL Biotin, 1 μM cAMP, 25 μM Puerarin, 25 μg/ml insulin. […]
On the 37th day of cultivation, the percentage of oligodendrocytes in all cells was quantitatively counted, as shown in FIG. 3.

O=c1c(-c2ccc(O)cc2)coc2c([C@@H]3O[C@H](CO)[C@@H](O)[C@H](O)[C@H]3O)c(O)ccc12 [puerarin, Puerarin]
percentage of oligodendrocytes in all cells (day 37 of cultivation, 25 μM puerarin in OPC mature culture medium, control medium without puerarin about 21%): about 36% | increase of the number of oligodendrocytes (later stage of induction of iPSC to oligodendrocytes): 30%
